Three compounds from ChEMBL document CHEMBL3868597, “Modulating amyloid-β aggregation: The effects of peptoid side chain placement and chirality” (Bioorg Med Chem, 2017) can be followed below.

The target of assay [1] is Amyloid-beta precursor protein (Homo sapiens) (UniProt P05067). The assay can be described thus: Inhibition of agitated amyloid beta (1 to 40) (unknown origin) aggregation at 100 uM measured at equilibrium by thioflavin T based fluorometric assay.
For assay [2] the target is unchanged. Briefly: Inhibition of agitated amyloid beta (1 to 40) (unknown origin) aggregation assessed as increase in lag time at 100 uM by dot blot analysis relative to control.
The target is the same in assay [3]. Briefly: Inhibition of agitated amyloid beta (1 to 40) (unknown origin) aggregation assessed as reduction in fibrillar aggregates at 100 uM by dot blot analysis.
For assay [4] the target is unchanged. Briefly: Inhibition of amyloid beta (1 to 40) (unknown origin) aggregation assessed as absence of fibrillar branching at equilibrium at 100 uM by uranyl acetate staining based transmission electron microscopic analysis.
Assay [5] shares this target. The assay can be described thus: Inhibition of amyloid beta (1 to 40) (unknown origin) aggregation assessed as reduction in number aggregates at equilibrium at 100 uM after 24 hrs by uranyl acetate staining based transmission electron microscopic analysis.
Assay [6] shares this target. The assay can be described thus: Inhibition of agitation-induced amyloid beta (1 to 40) (unknown origin) aggregation at 100 uM measured every 45 mins by thioflavin T based fluorometric assay.
The target is the same in assay [7]. The assay can be described thus: Inhibition of amyloid beta (1 to 40) (unknown origin) aggregation assessed as decrease in size of protein aggregation at equilibrium at 100 uM after 24 hrs by uranyl acetate staining based transmission electron microscopic analysis.
For assay [8] the target is unchanged. Briefly: Inhibition of agitation-induced amyloid beta (1 to 40) (unknown origin) aggregation assessed as decrease in lag time at 100 uM measured every 30 to 45 mins by dot blot analysis relative to control.
Assay [9] shares this target. The assay can be described thus: Inhibition of agitation-induced amyloid beta (1 to 40) (unknown origin) aggregation assessed as reduction in fibrillar aggregates at 100 uM measured every 30 to 45 mins by dot blot analysis.
Assay [10] shares this target. The assay can be described thus: Inhibition of agitation-induced amyloid beta (1 to 40) (unknown origin) aggregation assessed as decrease in lag time at 100 uM by dot blot analysis relative to control.
Assay [11] has the same target. Briefly: Inhibition of amyloid beta (1 to 40) (unknown origin) aggregation assessed as circular/bird-nest like aggregate formation at equilibrium at 100 uM after 24 hrs by uranyl acetate staining based transmission electron microscopic analysis.
The target is the same in assay [12]. Briefly: Inhibition of amyloid beta (1 to 40) (unknown origin) aggregation assessed as increase in surface hydrophobicity at equilibrium by nile red dye-based spectroscopic analysis.

Molecules are shown by their SMILES. Active and inactive are the calls of the source. The rule behind the calls is not given here. Non-standard residues stand in square brackets, D forms with d. Residues, ends and D or L forms follow the SMILES beside them. N(1S-Me-propyl)Gly = CC[C@H](C)NCC(=O)O; Nspe = C[C@H](NCC(=O)O)c1ccccc1; Nphe = O=C(O)CNCc1ccccc1; NPrGly = CCCNCC(=O)O; Nlys = NCCCCNCC(=O)O

Chain of Amyloid-beta precursor protein (Homo sapiens) (P05067 whole entry): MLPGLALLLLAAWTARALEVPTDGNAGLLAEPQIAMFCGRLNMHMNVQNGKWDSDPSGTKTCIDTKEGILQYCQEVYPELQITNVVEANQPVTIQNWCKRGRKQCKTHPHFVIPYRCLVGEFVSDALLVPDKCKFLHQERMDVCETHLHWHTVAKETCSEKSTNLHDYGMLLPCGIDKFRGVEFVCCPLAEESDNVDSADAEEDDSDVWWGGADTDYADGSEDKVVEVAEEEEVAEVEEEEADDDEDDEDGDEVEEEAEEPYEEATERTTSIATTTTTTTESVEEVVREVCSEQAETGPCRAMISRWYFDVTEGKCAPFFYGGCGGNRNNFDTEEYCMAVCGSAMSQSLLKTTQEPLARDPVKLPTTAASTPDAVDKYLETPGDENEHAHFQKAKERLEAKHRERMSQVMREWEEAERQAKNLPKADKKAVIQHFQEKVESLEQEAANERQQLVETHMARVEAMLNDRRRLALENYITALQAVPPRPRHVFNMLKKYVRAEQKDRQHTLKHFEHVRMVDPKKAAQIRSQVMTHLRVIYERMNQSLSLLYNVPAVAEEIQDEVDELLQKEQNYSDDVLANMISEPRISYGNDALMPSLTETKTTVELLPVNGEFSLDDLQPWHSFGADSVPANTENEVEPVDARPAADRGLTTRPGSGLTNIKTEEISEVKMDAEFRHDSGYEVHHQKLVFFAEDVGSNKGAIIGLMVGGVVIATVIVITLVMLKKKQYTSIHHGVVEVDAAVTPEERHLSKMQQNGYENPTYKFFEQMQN

With `CC[C@H](C)NCC(=O)N(CC(=O)N(CC(=O)N(CC(=O)N(CC(=O)N(CCCCN)CC(=O)N(CC(=O)N(CC(N)=O)[C@@H](C)c1ccccc1)[C@@H](C)CC)[C@@H](C)CC)[C@@H](C)c1ccccc1)[C@@H](C)c1ccccc1)[C@@H](C)c1ccccc1` (H-[N(1S-Me-propyl)Gly][Nspe][Nspe][Nspe][N(1S-Me-propyl)Gly][Nlys][N(1S-Me-propyl)Gly][Nspe]-NH2), the inhibition in [1] turned out to be 76.9%; in assay [3], 50.5%. The fold change (FC) in assay [2] is 2.2. The inhibition result in assay [4] and in [5] was “Active” in each case.
Regarding `CC[C@H](C)N(CC(=O)N(CC(=O)N(CC(=O)N(CC(=O)N(CC(=O)N(CC(=O)N(CC(N)=O)[C@@H](C)c1ccccc1)[C@@H](C)c1ccccc1)[C@@H](C)CC)[C@@H](C)c1ccccc1)[C@@H](C)c1ccccc1)[C@@H](C)CC)C(=O)CNCCCCN` (H-[Nlys][N(1S-Me-propyl)Gly][N(1S-Me-propyl)Gly][Nspe][Nspe][N(1S-Me-propyl)Gly][Nspe][Nspe]-NH2), the inhibition in assay [6] amounted to 81.2%; in assay [1] it was 83.1%; in [3], 46%; in assay [9], 63.7%. The figures for the fold change (FC) in assay [2], in assay [8] and in [10] were 2.7, less than 0.31 and less than 0.5, respectively. Moreover, the inhibition entry in [4], in [7] and in [5] was “Active” throughout.
As to `CCCN(CC(=O)N(CCC)CC(=O)N(CC(=O)N(CC(=O)N(CCC)CC(=O)N(CC(=O)N(CC(N)=O)Cc1ccccc1)Cc1ccccc1)Cc1ccccc1)Cc1ccccc1)C(=O)CNCCCCN` (H-[Nlys][NPrGly][NPrGly][Nphe][Nphe][NPrGly][Nphe][Nphe]-NH2), the inhibition in assay [1] worked out at 85.6%; in [3], 72.6%. The inhibition result in assay [4], in [11], in assay [12] and in assay [5] was “Active” in each case.

The term inhibition denotes the percentage by which the read-out fell short of the control.
